# Test results as given in patent US20230339952A1, “MACROCYCLIC HETEROCYCLES AND USES THEREOF” (Kumquat Biosciences Inc., priority 2022, published 2023).
# Like-named read-outs stand apart in the source and are kept apart here.
# Legend:
# SOS1 = SOS1 (Homo sapiens (Human), UniProt Q07889); experiment: Ras-SOS interaction assay (HTRF), K-Ras G13D utilized; type: binding; details: K-Ras G13D
# [1] = test system: NCI-H1975 (ATCC CRL-5908) cell line comprising an EGFR T790M L858R double mutation; experiment: EGFR-SOS cellular inhibition assay (CellTiter-Glo cell proliferation); type: cell-based; details: Homo sapiens
# Protocol: A CellTiter-Glo (CTG) luminescent based assay (Promega) is used to assess growth of the cells, as a measurement of the ability of the compounds herein to inhibit EGFR signaling in the cells. […] The day after plating, cells are treated with a dilution series (e.g., a 9 point 3-fold dilution series) of the compounds herein (e.g., approximately 125 μL final volume per well).
# [2] = 120 h, NCI-H1975 cell proliferation, approximately 5 days, read-out: H1975 IC50
# SOS1, sequence (Q07889 564-1049): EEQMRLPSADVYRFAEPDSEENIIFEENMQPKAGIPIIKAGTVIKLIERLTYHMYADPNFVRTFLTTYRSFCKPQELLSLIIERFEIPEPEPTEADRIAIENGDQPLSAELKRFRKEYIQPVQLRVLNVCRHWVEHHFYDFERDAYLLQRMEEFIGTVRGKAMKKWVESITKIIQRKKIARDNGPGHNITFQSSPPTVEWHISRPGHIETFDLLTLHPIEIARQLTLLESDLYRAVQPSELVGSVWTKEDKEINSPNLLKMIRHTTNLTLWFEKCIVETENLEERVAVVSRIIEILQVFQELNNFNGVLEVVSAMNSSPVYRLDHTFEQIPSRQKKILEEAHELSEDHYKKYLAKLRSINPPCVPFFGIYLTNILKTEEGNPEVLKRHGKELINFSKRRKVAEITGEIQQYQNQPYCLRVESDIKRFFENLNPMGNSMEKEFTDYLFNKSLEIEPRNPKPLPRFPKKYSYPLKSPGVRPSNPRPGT
SMILES,IC50 (SOS1; read-out: SOS1 IC50),"IC50 [1, 2]",IC50 (SOS1; read-out: IC50 value against SOS1),"IC50 ([1]; NCI-H1975, EGFR T790M L858R double mutation, read-out: IC50 in inhibiting growth of NCI-H1975 cell line)"
"C[C@H]1Nc2ncnc3c2cc(C2(C#N)CC2)c(=O)n3CC(=O)N(C)CCCCN2CCC(CC2)C(F)(F)c2cccc1c2 [Compound 52, 1-((4R)-2,2-difluoro-4,9-dimethyl-6^7,8-dioxo-6^7,6^8-dihydro-5,9-diaza-6(4,8)-pyrido[2,3-d]pyrimidina-1(4,1)-piperidina-3(1,3)-benzenacyclotridecaphane-6^6-yl)cyclopropane-1-carbonitrile]",< 100 nM,< 1000 nM,–,–
"CC(C)N1CCN(c2cc3c4ncnc3n(c2=O)CCCCCCN2CCC(CC2)CC(F)(F)c2cccc(c2F)[C@@H](C)N4)CC1 [Compound 16, (3R)-4^2,5,5-trifluoro-1^6-(4-isopropylpiperazin-1-yl)-3-methyl-1^7,1^8-dihydro-2-aza-1(4,8)-pyrido[2,3-d]pyrimidina-7(4,1)-piperidina-4(1,3)-benzenacyclotridecaphan-1^7-one]",< 100 nM,< 1000 nM,–,–
"C[C@H]1Nc2ncnc3c2cc(C2CCS(=O)(=O)CC2)c(=O)n3CCCC(=O)NCCN2CCC(CC2)C(F)(F)c2cccc1c2 [Compound 30, (4R)-6^6-(1,1-dioxidotetrahydro-2H-thiopyran-4-yl)-2,2-difluoro-4-methyl-6^7,6^8-dihydro-5,11-diaza-6(4,8)-pyrido[2,3-d]pyrimidina-1(4,1)-piperidina-3(1,3)-benzenacyclotridecaphane-6^7,10-dione]",< 100 nM,< 1000 nM,–,–
"C[C@H]1Nc2ncnc3c2cc(N2CCN(C4CCOCC4)CC2)c(=O)n3CCCCCCCN2CCC(CC2)C(F)(F)c2cccc1c2F [Compound 19, (4R)-3^2,2,2-trifluoro-4-methyl-6^6-(4-(tetrahydro-2H-pyran-4-yl)piperazin-1-yl)-6^7,68-dihydro-5-aza-6(4,8)-pyrido[2,3-d]pyrimidina-1(4,1)-piperidina-3(1,3)-benzenacyclotridecaphan-6^7-one]",< 100 nM,< 1000 nM,–,–
"C[C@H]1Nc2ncnc3c2cc(C2CCS(=O)(=O)CC2)c(=O)n3CCCCCC(C)(C)CN2CCC(CC2)C(F)(F)c2cccc1c2 [Compound 55, (4R)-6^6-(1,1-dioxidotetrahydro-2H-thiopyran-4-yl)-2,2-difluoro-4,12,12-trimethyl-6^7,6^8-dihydro-5-aza-6(4,8)-pyrido[2,3-d]pyrimidina-1(4,1)-piperidina-3(1,3)-benzenacyclotridecaphan-6^7-one]",< 100 nM,< 1000 nM,–,–
"C[C@H]1Nc2ncnc3c2cc(C2(C#N)CC2)c(=O)n3CCCC/C=C/CN2CCC(CC2(C)C)C(F)(F)c2cccc1c2 (stereo partly drawn) [Compound 70, 1-((4R,E)-2,2-difluoro-1^2,1^2,4-trimethyl-6^7-oxo-6^7,6^8-dihydro-5-aza-6(4,8)-pyrido[2,3-d]pyrimidina-1(4,1)-piperidina-3(1,3)-benzenacyclotridecaphan-11-en-6^6-yl)cyclopropane-1-carbonitrile]",< 100 nM,< 1000 nM,–,–
"C[C@H]1Nc2ncnc3c2cc(C2CCS(=O)(=O)CC2)c(=O)n3CCCCCCCN2CCC(CC2)C(F)(F)c2cccc1c2 [Compound 83, (4R)-6^6-(1,1-dioxidotetrahydro-2H-thiopyran-4-yl)-2,2-difluoro-4-methyl-6^7,6^8-dihydro-5-aza-6(4,8)-pyrido[2,3-d]pyrimidina-1(4,1)-piperidina-3(1,3)-benzenacyclotridecaphan-6^7-one]",< 100 nM,< 1000 nM,–,–
"C[C@H]1Nc2ncnc3c2cc(C2CCS(=O)(=O)CC2)c(=O)n3CCCOCCCCN2CCC(CC2)C(F)(F)c2cccc1c2 [Compound 62, (4R)-66-(1,1-dioxidotetrahydro-2H-thiopyran-4-yl)-2,2-difluoro-4-methyl-67,68-dihydro-10-oxa-5-aza-6(4,8)-pyrido[2,3-d]pyrimidina-1(4,1)-piperidina-3(1,3)-benzenacyclotetradecaphan-67-one]",< 100 nM,< 1000 nM,–,–
"C[C@H]1Nc2ncnc3c2cc(C2(C#N)CC2)c(=O)n3CC(=O)NCCC[C@H](C)N2CCC(CC2)C(F)(F)c2cccc1c2F [Compound 98, 1-((4R,13S)-3^2,2,2-trifluoro-4,13-dimethyl-6^7,8-dioxo-6^7,6^8-dihydro-5,9-diaza-6(4,8)-pyrido[2,3-d]pyrimidina-1(4,1)-piperidina-3(1,3)-benzenacyclotridecaphane-6^6-yl)cyclopropane-1-carbonitrile]",< 100 nM,< 1000 nM,–,–
"CC1CC/C=C\CCn2c(=O)c(C3(C#N)CC3)cc3c(ncnc32)N[C@H](C)c2cccc(c2F)C(F)(F)C2CCN1CC2 (stereo partly drawn) [Compound 24, 1-((4R,Z)-3^2,2,2-trifluoro-4,13-dimethyl-6^7-oxo-6^7,6^8-dihydro-5-aza-6(4,8)-pyrido[2,3-d]pyrimidina-1(4,1)-piperidina-3(1,3)-benzenacyclotridecaphan-9-en-6^6-yl)cyclopropane-1-carbonitrile]",< 100 nM,< 1000 nM,–,–

# Next, values leading:
IC50 (SOS1; read-out: SOS1 IC50),"IC50 [1, 2]",IC50 (SOS1; read-out: IC50 value against SOS1),"IC50 ([1]; NCI-H1975, EGFR T790M L858R double mutation, read-out: IC50 in inhibiting growth of NCI-H1975 cell line)",SMILES
< 100 nM,< 1000 nM,–,–,"C[C@H]1Nc2ncnc3c2cc(C2CCS(=O)(=O)CC2)c(=O)n3CCCCn2cc(nn2)CN2CCC(CC2)C(F)(F)c2cccc1c2 [Compound 160, (6R,Z)-8^6-(1,1-dioxidotetrahydro-2H-thiopyran-4-yl)-4,4-difluoro-6-methyl-8^7,8^8-dihydro-1^1H-7-aza-8 (4,8)-pyrido[2,3-d]pyrimidina-3(1,4)-piperidina-1(4,1)-triazola-5(1,3)-benzenacyclododecaphan-8^7-one]"
< 100 nM,< 1000 nM,–,–,"C[C@H]1Nc2ncnc3c2cc(N2CCS(=O)(=O)CC2)c(=O)n3CCCCCN2CCC(CC2)CCC(F)(F)c2cccc1c2F [Compound 119, (3R)-1^6-(1,1-dioxidothiomorpholino)-4^2,5,5-trifluoro-3-methyl-1^7,1^8-dihydro-2-aza-1(4,8)-pyrido[2,3-d]pyrimidina-8(4,1)-piperidina-4(1,3)-benzenacyclotridecaphan-1^7-one]"
< 100 nM,< 1000 nM,< 50 nM,< 500 nM,"C[C@H]1Nc2ncnc3c2cc(N2CCS(=O)(=O)CC2)c(=O)n3CCCOCCCCN2CC(C2)CC(F)(F)c2cccc1c2 [Compound 209, (3R)-1^6-(1,1-dioxidothiomorpholino)-5,5-difluoro-3-methyl-1^7,1^8-dihydro-12-oxa-2-aza-1(4,8)-pyrido[2,3-d]pyrimidina-7(3,1)-azetidina-4(1,3)-benzenacyclopentade-caphan-1^7-one]"
< 100 nM,< 1000 nM,–,–,"C[C@H]1Nc2ncnc3nc(c(C4(C#N)CC4)cc23)OCCCCCCN2CCC(CC2)C(F)(F)c2cccc1c2 [Compound 121, (R)-1-(2,2-difluoro-4-methyl-7-oxa-5-aza-6(4,7)-pyrido[2,3-d]pyrimidina-1(4,1)-piperidina-3(1,3)-benzenacyclotridecaphane-6^6-yl)cyclopropane-1-carbonitrile]"
< 100 nM,< 1000 nM,–,–,"C[C@H]1Nc2ncnc3c2cc(C2CCS(=O)(=O)CC2)c(=O)n3CCCCNC(=O)CN2CCC(CC2)C(F)(F)c2cccc1c2 [Compound 118, (4R)-6^6-(1,1-dioxidotetrahydro-2H-thiopyran-4-yl)-2,2-difluoro-4-methyl-6^7,6^8-dihydro-5,11-diaza-6(4,8)-pyrido[2,3-d]pyrimidina-1(4,1)-piperidina-3(1,3)-benzenacyclotridecaphane-6^7,12-dione]"
< 100 nM,< 1000 nM,–,–,"C[C@@H]1C(=O)NCCCCn2c(=O)c(C3CCS(=O)(=O)CC3)cc3c(ncnc32)N[C@H](C)c2cccc(c2)C(F)(F)C2CCN1CC2 [Compound 106, (4R,13R)-6^6-(1,1-dioxidotetrahydro-2H-thiopyran-4-yl)-2,2-difluoro-4,13-dimethyl-6^7,6^8-dihydro-5,11-diaza-6(4,8)-pyrido[2,3-d]pyrimidina-1(4,1)-piperidina-3(1,3)-benzenacyclotridecaphane-6^7,12-dione]"
< 100 nM,< 1000 nM,–,–,"C[C@H]1Nc2ncnc3c2cc(C2(C#N)CC2)c(=O)n3CCCCCCN2CCC(CC2)C(F)(F)c2cccc1c2 [Compound 104, 1-((4R)-2,2-difluoro-4-methyl-6^7-oxo-6^7,6^8-dihydro-5-aza-6(4,8)-pyrido[2,3-d]pyrimidina-1(4,1)-piperidina-3(1,3)-benzenacyclododecaphane-6^6-yl)cyclopropane-1-carbonitrile]"
< 100 nM,< 1000 nM,–,–,"CC(C)N1CCC(c2cc3c4ncnc3n(c2=O)CCCCCCN2CCC(CC2)CC(F)(F)c2cccc(c2F)[C@@H](C)N4)CC1 [Compound 140, (3R)-4^2,5,5-trifluoro-1^6-(1-isopropylpiperidin-4-yl)-3-methyl-1^7,1^8-dihydro-2-aza-1(4,8)-pyrido[2,3-d]pyrimidina-7(4,1)-piperidina-4(1,3)-benzenacyclotridecaphan-1^7-one]"
< 100 nM,< 1000 nM,–,–,"CC(C)N1CCC(c2cc3c4ncnc3n(c2=O)CCCCCCCN2CCC(CC2)C(F)(F)c2cccc(c2F)[C@@H](C)N4)CC1 [Compound 162, (4R)-3^2,2,2-trifluoro-6^6-(1-isopropylpiperidin-4-yl)-4-methyl-6^7,6^8-dihydro-5-aza-6(4,8)-pyrido[2,3-d]pyrimidina-1(4,1)-piperidina-3(1,3)-benzenacyclotridecaphan-6^7-one]"
< 100 nM,< 1000 nM,–,–,"Cc1nc2c3cc(C4(C#N)CC4)c(=O)n(c3n1)CCCC/C=C\COCC(F)(F)c1cccc(c1F)[C@@H](C)N2 [Compound 105, 1-((3R,Z)-4^2,5,5-trifluoro-1^2,3-dimethyl-1^7-oxo-1^7,1^8-dihydro-7-oxa-2-aza-1(4,8)-pyrido[2,3-d]pyrimidina-4(1,3)-benzenacyclotetradecaphan-9-en-1^6-yl)cyclopropane-1-carbonitrile]"
